Values joined by “and” are separate entries in the source; they are usually repeats but may differ in a detail not shown here. Equal values may be shown once. Read-outs that look alike come from different tables or passages of the source.
Key:
NR2F6 = molecular target: T1, NR2F6 (Homo sapiens, UniProt P10588); assay: NR2F6 agonist screening, Firefly signal cmpd/DMSO; type: cell-based
T1 construct: expressed in transfected cells; also transient transfection
T1 sequence (P10588 1-404): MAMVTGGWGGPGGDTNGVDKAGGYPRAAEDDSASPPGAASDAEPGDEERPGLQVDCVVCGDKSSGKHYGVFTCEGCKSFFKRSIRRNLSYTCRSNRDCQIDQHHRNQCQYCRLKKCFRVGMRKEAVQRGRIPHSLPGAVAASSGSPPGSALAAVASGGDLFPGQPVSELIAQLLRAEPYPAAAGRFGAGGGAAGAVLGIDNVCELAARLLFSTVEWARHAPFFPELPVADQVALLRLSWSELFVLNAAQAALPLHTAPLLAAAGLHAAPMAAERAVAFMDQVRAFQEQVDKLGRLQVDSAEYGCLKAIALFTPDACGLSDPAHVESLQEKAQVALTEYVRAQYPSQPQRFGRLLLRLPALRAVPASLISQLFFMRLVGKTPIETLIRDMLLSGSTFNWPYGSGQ

Renilla [1] = assay: Renilla signal in NR2F6 agonist screening, cmpd/DMSO; type: cell-based; conditions: Renilla
HEK293 pGL4 = assay: Firefly_pGL signal, cmpd/DMSO (pGL4 control cells); type: cell-based; conditions: Homo sapiens
NR2F6 LBD = molecular target: T2, NR2F6 LBD (Homo sapiens, UniProt P10588); assay: NR2F6 LBD transient transfection; type: cell-based
T2 construct: expressed in transfected cells
T2 sequence (P10588 165-393 limits assumed): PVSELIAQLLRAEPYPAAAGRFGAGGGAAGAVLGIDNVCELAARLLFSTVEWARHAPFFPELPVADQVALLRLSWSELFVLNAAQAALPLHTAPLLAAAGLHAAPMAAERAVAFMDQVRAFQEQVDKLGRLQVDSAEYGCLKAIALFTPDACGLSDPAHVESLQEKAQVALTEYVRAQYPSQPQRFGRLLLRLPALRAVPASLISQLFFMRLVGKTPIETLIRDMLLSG
In short: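 LBD-transfected cells treated at 40, 10, 2 and 0.5 μM (4 replicates); cytotoxicity measured in parallel, normalized to DMSO (0%) and zero signal (100%). Higher concentrations excluded where signal loss reflected toxicity.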

[2] = Stability in human plasma; type: in vitro ADME
hCyt P450 = hCyt P450 (Homo sapiens, UniProt P10635); assay: CYP inhibition; type: in vitro ADME; conditions: CYP 2D6-Dextromethorphan
[3] = Caco-2 permeability assay; type: in vitro ADME; conditions: human
Procedure: (§1) A Caco-2 permeability assay was performed on Compound D136.

Caco-2 = Caco-2 permeability assay; type: in vitro ADME
Procedure: as §1

Renilla [4] = assay: Renilla signal, LBD, cmpd/DMSO (NR2F6 LBD transfected cells); type: cell-based
[5] = read-out: Renilla F4, cmpd/DMSO (mean)
[6] = F4, 1% FBS, read-out: Renilla, F4, 1% FBS, cmpd/DMSO (mean)
[7] = F4, 10% FBS, read-out: Renilla, F4, 10% FBS, cmpd/DMSO (mean)

Chain of hCyt P450 (P10635 whole entry): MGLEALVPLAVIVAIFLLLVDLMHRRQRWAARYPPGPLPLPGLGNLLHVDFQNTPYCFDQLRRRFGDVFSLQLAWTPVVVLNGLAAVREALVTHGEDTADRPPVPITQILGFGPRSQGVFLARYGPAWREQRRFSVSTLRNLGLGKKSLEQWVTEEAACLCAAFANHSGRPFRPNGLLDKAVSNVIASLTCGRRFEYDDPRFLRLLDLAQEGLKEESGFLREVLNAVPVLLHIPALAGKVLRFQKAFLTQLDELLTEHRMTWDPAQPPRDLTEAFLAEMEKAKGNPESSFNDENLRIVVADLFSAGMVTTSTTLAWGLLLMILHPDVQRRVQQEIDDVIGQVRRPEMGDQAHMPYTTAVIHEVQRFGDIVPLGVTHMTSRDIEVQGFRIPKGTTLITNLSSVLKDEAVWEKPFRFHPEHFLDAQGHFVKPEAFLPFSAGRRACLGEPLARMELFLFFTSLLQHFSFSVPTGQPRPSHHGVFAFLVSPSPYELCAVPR

Question: For `COCCN[C@H]1CS(=O)(=O)C[C@@H]1S(=O)(=O)c1ccc(Cl)cc1` [Compound D136], which “Firefly F4, cmpd/DMSO (mean)” value (NR2F6; 0.5 uM) is on record?
Answer: The value was 1.5.

Question: What about the “Firefly F4, cmpd/DMSO (mean)” value (NR2F6; 2 uM) of the same molecule?
Answer: The value was 1.1.

Question: And the “Firefly F4, cmpd/DMSO (mean)” value (NR2F6; 10 uM)?
Answer: The value was 2.7.

Question: And the “Firefly F4, cmpd/DMSO (mean)” value (NR2F6; 40 uM)?
Answer: The value was 5.2.

Question: And the “F4, Firefly/Renilla for S/B(F4) > 3” value (NR2F6; 1% FBS, 40 uM)?
Answer: The value was 3.1.

Question: And the “Firefly, F4/pGL4 for S/B(F4) > 3” value (NR2F6; 1% FBS, 40 uM)?
Answer: Its value is 4.7.

Question: And the “F4, Firefly/Renilla for S/B(F4) > 3” value (NR2F6; 10% FBS, 40 uM)?
Answer: Its value is 3.5.

Question: What about the “Firefly, F4/pGL4 for S/B(F4) > 3” value (NR2F6; 10% FBS, 40 uM) of the same molecule?
Answer: The value was 3.0.

Question: What about the “Firefly, F4, 1% FBS, cmpd/DMSO (mean)” value (NR2F6; 1% FBS, 0.5 uM) of the same molecule?
Answer: The value was 0.8.

Question: And the “Firefly, F4, 1% FBS, cmpd/DMSO (mean)” value (NR2F6; 1% FBS, 2 uM)?
Answer: The value was 1.0.

Question: What about the “Firefly, F4, 1% FBS, cmpd/DMSO (mean)” value (NR2F6; 1% FBS, 10 uM) of the same molecule?
Answer: Its value is 2.4.

Question: What about the “Firefly, F4, 1% FBS, cmpd/DMSO (mean)” value (NR2F6; 1% FBS, 40 uM) of the same molecule?
Answer: The value was 7.4.

Question: And the “Firefly, F4, 10% FBS, cmpd/DMSO (mean)” value (NR2F6; 10% FBS, 0.5 uM)?
Answer: The value was 0.4.

Question: And the “Firefly, F4, 10% FBS, cmpd/DMSO (mean)” value (NR2F6; 10% FBS, 2 uM)?
Answer: The value was 1.4.

Question: What about the “Firefly, F4, 10% FBS, cmpd/DMSO (mean)” value (NR2F6; 10% FBS, 10 uM) of the same molecule?
Answer: Its value is 1.9.

Question: And the “Firefly, F4, 10% FBS, cmpd/DMSO (mean)” value (NR2F6; 10% FBS, 40 uM)?
Answer: Its value is 12.

Question: And the “activation of full-length NR2F6” value (NR2F6; cellular assays)?
Answer: Its value is “Activates”.

Question: What about the fold induction at 0.5 µM (Renilla [1]; [5]) of the same molecule?
Answer: The fold induction at 0.5 µM was 0.9.

Question: And the fold induction at 2 µM (Renilla [1]; [5])?
Answer: The fold induction at 2 µM was 1.1.

Question: And the fold induction at 10 µM (Renilla [1]; [5])?
Answer: Its fold induction at 10 µM is 1.4.

Question: And the fold induction at 40 µM (Renilla [1]; [5])?
Answer: Its fold induction at 40 µM is 1.7.

Question: And the fold induction at 0.5 µM (Renilla [1]; [6])?
Answer: The fold induction at 0.5 µM was 1.1.

Question: What about the fold induction at 2 µM (Renilla [1]; [6]) of the same molecule?
Answer: The fold induction at 2 µM was 1.1.

Question: What about the fold induction at 10 µM (Renilla [1]; [6]) of the same molecule?
Answer: The fold induction at 10 µM was 1.5.

Question: And the fold induction at 40 µM (Renilla [1]; [6])?
Answer: Its fold induction at 40 µM is 2.4.

Question: What about the fold induction at 0.5 µM (Renilla [1]; [7]) of the same molecule?
Answer: Its fold induction at 0.5 µM is 0.9.

Question: And the fold induction at 2 µM (Renilla [1]; [7])?
Answer: The fold induction at 2 µM was 0.9.

Question: What about the fold induction at 10 µM (Renilla [1]; [7]) of the same molecule?
Answer: The fold induction at 10 µM was 1.2.

Question: And the fold induction at 40 µM (Renilla [1]; [7])?
Answer: The fold induction at 40 µM was 3.3.

Question: What about the fold induction at 0.5 µM (HEK293 pGL4; HEK293, 0.5 uM, read-out: Firefly pGL4, cmpd/DMSO (mean)) of the same molecule?
Answer: Its fold induction at 0.5 µM is 1.1.

Question: What about the fold induction at 2 µM (HEK293 pGL4; HEK293, 2 uM, read-out: Firefly pGL4, cmpd/DMSO (mean)) of the same molecule?
Answer: The fold induction at 2 µM was 1.

Question: And the fold induction at 10 µM (HEK293 pGL4; HEK293, 10 uM, read-out: Firefly pGL4, cmpd/DMSO (mean))?
Answer: Its fold induction at 10 µM is 1.8.

Question: And the fold induction at 40 µM (HEK293 pGL4; HEK293, 40 uM, read-out: Firefly pGL4, cmpd/DMSO (mean))?
Answer: Its fold induction at 40 µM is 2.6.

Question: What about the fold induction at 0.5 µM (HEK293 pGL4; HEK293, pGL4, 1% FBS, 0.5 uM, read-out: Firefly, pGL4, 1% FBS, cmpd/DMSO (mean)) of the same molecule?
Answer: Its fold induction at 0.5 µM is 1.1.

Question: What about the fold induction at 2 µM (HEK293 pGL4; HEK293, pGL4, 1% FBS, 2 uM, read-out: Firefly, pGL4, 1% FBS, cmpd/DMSO (mean)) of the same molecule?
Answer: The fold induction at 2 µM was 0.9.

Question: What about the fold induction at 10 µM (HEK293 pGL4; HEK293, pGL4, 1% FBS, 10 uM, read-out: Firefly, pGL4, 1% FBS, cmpd/DMSO (mean)) of the same molecule?
Answer: Its fold induction at 10 µM is 1.3.

Question: What about the fold induction at 40 µM (HEK293 pGL4; HEK293, pGL4, 1% FBS, 40 uM, read-out: Firefly, pGL4, 1% FBS, cmpd/DMSO (mean)) of the same molecule?
Answer: Its fold induction at 40 µM is 1.6.

Question: What about the fold induction at 0.5 µM (HEK293 pGL4; HEK293, pGL4, 10% FBS, 0.5 uM, read-out: Firefly, pGL4, 10% FBS, cmpd/DMSO (mean)) of the same molecule?
Answer: Its fold induction at 0.5 µM is 1.3.

Question: And the fold induction at 2 µM (HEK293 pGL4; HEK293, pGL4, 10% FBS, 2 uM, read-out: Firefly, pGL4, 10% FBS, cmpd/DMSO (mean))?
Answer: The fold induction at 2 µM was 1.1.

Question: And the fold induction at 10 µM (HEK293 pGL4; HEK293, pGL4, 10% FBS, 10 uM, read-out: Firefly, pGL4, 10% FBS, cmpd/DMSO (mean))?
Answer: Its fold induction at 10 µM is 1.8.

Question: And the fold induction at 40 µM (HEK293 pGL4; HEK293, pGL4, 10% FBS, 40 uM, read-out: Firefly, pGL4, 10% FBS, cmpd/DMSO (mean))?
Answer: Its fold induction at 40 µM is 3.8.

Question: And the “Firefly LBD, cmpd/DMSO (mean)” value (NR2F6 LBD; 0.5 uM)?
Answer: Its value is 1.0.

Question: And the “Firefly LBD, cmpd/DMSO (mean)” value (NR2F6 LBD; 2 uM)?
Answer: Its value is 1.5.

Question: What about the “Firefly LBD, cmpd/DMSO (mean)” value (NR2F6 LBD; 10 uM) of the same molecule?
Answer: Its value is 2.6.

Question: What about the “Firefly LBD, cmpd/DMSO (mean)” value (NR2F6 LBD; 40 uM) of the same molecule?
Answer: The value was 2.9.

Question: What about the “activation of ligand binding domain-only NR2F6” value (NR2F6 LBD; cellular assays) of the same molecule?
Answer: The value was “Activates”.

Question: And the “stability in human plasma” value [2]?
Answer: Its value is “Stable”.

Question: What about the CYP inhibition conclusion (hCyt P450) of the same molecule?
Answer: The CYP inhibition conclusion was “no inhi-”.

Question: And the IC50 (hCyt P450)?
Answer: Its IC50 is greater than 10 µM.

Question: What about the Papp A→B ([3]; Caco-2, Mean) of the same molecule?
Answer: The Papp A→B was 342 nm/s.

Question: What about the Papp B→A ([3]; Caco-2, Mean) of the same molecule?
Answer: The Papp B→A was 511 nm/s.

Question: And the Papp A→B ([3]; Caco-2, individual replicates)?
Answer: The Papp A→B was 336 nm/s.

Question: What about the Papp B→A ([3]; Caco-2, individual replicates) of the same molecule?
Answer: The Papp B→A was 479 nm/s.

Question: And the Caco-2 permeability (Caco-2)?
Answer: Its Caco-2 permeability is “highly permeable”.

Question: And the “Papp A-B” value (Caco-2; individual replicates)?
Answer: The value was 36.0 10^−6 cm/s and 33.1 10^−6 cm/s.

Question: And the “Papp B-A” value (Caco-2; individual replicates)?
Answer: The value was 54.6 10^−6 cm/s and 50.9 10^−6 cm/s.

Question: And the “Renilla LBD, cmpd/DMSO (mean)” value (Renilla [4]; 0.5 uM)?
Answer: Its value is 1.1.

Question: And the “Renilla LBD, cmpd/DMSO (mean)” value (Renilla [4]; 2 uM)?
Answer: The value was 1.0.

Question: And the “Renilla LBD, cmpd/DMSO (mean)” value (Renilla [4]; 10 uM)?
Answer: Its value is 1.0.

Question: And the “Renilla LBD, cmpd/DMSO (mean)” value (Renilla [4]; 40 uM)?
Answer: Its value is 0.6.
